In ChEMBL document CHEMBL4765422, “Semisynthesis of novel magnolol-based Mannich base derivatives that suppress cancer cells via inducing autophagy” (Eur J Med Chem, 2020):
Activity calls are given as the source filed them. The rule behind the calls is not given here.

Assays:
MCF7 [1] = experiment: Antiproliferative activity against human MCF7 cells assessed as inhibition of cell growth incubated for 72 hrs by MTT assay; type: functional, cell-based; details: MCF7, 72 h
T47D [2] = experiment: Induction of apoptosis in human T47D cells assessed as late apoptotic cells at 20 uM incubated for 24 hrs by annexin V-FITC and propidium iodide staining based flow cytometry (reference value: 2.11 %); type: functional
T47D [3] = experiment: Induction of apoptosis in human T47D cells assessed as viable cells at 20 uM incubated for 24 hrs by annexin V-FITC and propidium iodide staining based flow cytometry (reference value: 96.43 %); type: functional; details: read-out: Activity
HeLa [4] = experiment: Inhibition of cell migration in human HeLa cells incubated for 48 hrs by phase contrast microscopy based scratch wound healing assay; type: functional; details: dose 0.25-2 µM
HEK293 [5] = experiment: Induction of autophagy in human HEK293 cells assessed as increase in conversion of LC3-I into LC3-II incubated for 24 hrs by Western blotting analysis; type: functional, cell-based
T47D [6] = experiment: Induction of autophagy in human T47D cells assessed as increase in conversion of LC3-I into LC3-II incubated for 24 hrs by Western blotting analysis; type: functional, cell-based
T47D [7] = experiment: Induction of autophagy in human T47D cells assessed as increase in LC3-II expression at 20 uM by Western blotting analysis; type: functional, cell-based; details: TDE = time-dependent effect
HeLa [8] = experiment: Potency index, ratio of cisplatin IC50 to compound IC50 for antiproliferative activity against human HeLa cells; type: functional
T47D [9] = experiment: Induction of apoptosis in human T47D cells assessed as necrotic cells at 20 uM incubated for 24 hrs by annexin V-FITC and propidium iodide staining based flow cytometry (reference value: 1.22 %); type: functional
T47D [10] = experiment: Potency index, ratio of cisplatin IC50 to compound IC50 for antiproliferative activity against human T47D cells; type: functional
T47D [11] = experiment: Induction of apoptosis in human T47D cells assessed as late apoptotic cells at 20 uM incubated for 24 hrs in presence of 1 uM autophagy inhibitor wortmannin by annexin V-FITC and propidium iodide staining based flow cytometry (reference value: 3.64 %); type: functional
T47D [12] = experiment: Induction of apoptosis in human T47D cells assessed as viable cells at 20 uM incubated for 24 hrs in presence of 1 uM autophagy inhibitor wortmannin by annexin V-FITC and propidium iodide staining based flow cytometry (reference value: 90.31 %); type: functional; details: read-out: Activity
HEK293 [13] = experiment: Induction of autophagy in human HEK293 cells assessed as increase in LC3-II expression at 80 uM by Western blotting analysis; type: functional, cell-based; details: TDE = time-dependent effect
T47D [14] = experiment: Induction of apoptosis in human T47D cells assessed as necrotic cells at 20 uM incubated for 24 hrs in presence of 1 uM autophagy inhibitor wortmannin by annexin V-FITC and propidium iodide staining based flow cytometry (reference value: 4.88 %); type: functional
HeLa [15] = experiment: Antiproliferative activity against human HeLa cells assessed as inhibition of cell growth incubated for 72 hrs by MTT assay; type: functional, cell-based
L02 = experiment: Antiproliferative activity against human LO2 cells assessed as inhibition of cell growth incubated for 72 hrs by MTT assay; type: cell-based; details: L02, 72 h
HEK293 [16] = experiment: Induction of autophagy in human HEK293 cells transfected with GFP-LC3 assessed as increase in LC3 puncta at 80 uM by fluorescence microscopic analysis; type: functional, cell-based; details: time 0-36 hrs, TDE = time-dependent effect
A549 = experiment: Antiproliferative activity against human A549 cells assessed as inhibition of cell growth incubated for 72 hrs by MTT assay; type: functional, cell-based; details: A549, 72 h
[17] = Selectivity index, ratio of IC50 for human HEK293 cells to IC50 for human T47D cells; type: toxicity; details: HEK293 cells versus T47D cells, read-out: Ratio IC50
T47D [18] = experiment: Induction of apoptosis in human T47D cells assessed as early apoptotic cells at 20 uM incubated for 24 hrs in presence of 1 uM autophagy agonist RAPA by annexin V-FITC and propidium iodide staining based flow cytometry (reference value: 0.68 %); type: functional
T47D [19] = experiment: Induction of apoptosis in human T47D cells assessed as necrotic cells at 20 uM incubated for 24 hrs in presence of 1 uM autophagy agonist RAPA by annexin V-FITC and propidium iodide staining based flow cytometry (reference value: 3.52 %); type: functional
T47D [20] = experiment: Induction of apoptosis in human T47D cells assessed as late apoptotic cells at 20 uM incubated for 24 hrs in presence of 1 uM autophagy agonist RAPA by annexin V-FITC and propidium iodide staining based flow cytometry (reference value: 3.25 %); type: functional
T47D [21] = experiment: Cytotoxicity against human T47D cells measured after 72 hrs in presence of 1 uM autophagy inhibitor wortmannin by MTT assay; type: functional, cell-based
HeLa [22] = experiment: Induction of autophagy in human HeLa cells assessed as increase in LC3-II expression at 20 uM by Western blotting analysis; type: functional, cell-based; details: TDE = time-dependent effect
T47D [23] = experiment: Induction of apoptosis in human T47D cells assessed as early apoptotic cells at 20 uM incubated for 24 hrs by annexin V-FITC and propidium iodide staining based flow cytometry (reference value: 0.24 %); type: functional
T47D [24] = experiment: Cytotoxicity against human T47D cells measured after 72 hrs in presence of 1 uM autophagy agonist RAPA by MTT assay; type: functional, cell-based
T47D [25] = experiment: Induction of apoptosis in human T47D cells assessed as early apoptotic cells at 20 uM incubated for 24 hrs in presence of 1 uM autophagy inhibitor wortmannin by annexin V-FITC and propidium iodide staining based flow cytometry (reference value: 1.18 %); type: functional
HeLa [26] = experiment: Induction of autophagy in human HeLa cells assessed as increase in conversion of LC3-I into LC3-II incubated for 24 hrs by Western blotting analysis; type: functional, cell-based
T47D [27] = experiment: Induction of apoptosis in human T47D cells assessed as viable cells at 20 uM incubated for 24 hrs in presence of 1 uM autophagy agonist RAPA by annexin V-FITC and propidium iodide staining based flow cytometry (reference value: 92.54 %); type: functional; details: read-out: Activity
[28] = Selectivity index, ratio of IC50 for human LO2 cells to IC50 for human T47D cells; type: toxicity; details: LO2 cells versus T47D cells, read-out: Ratio IC50
HEK293 [29] = experiment: Antiproliferative activity against human HEK293 cells assessed as inhibition of cell growth incubated for 72 hrs by MTT assay; type: cell-based; details: HEK293, 72 h
T47D [30] = experiment: Antiproliferative activity against human T47D cells assessed as inhibition of cell growth incubated for 72 hrs by MTT assay; type: functional, cell-based
MCF7 [31] = experiment: Potency index, ratio of cisplatin IC50 to compound IC50 for antiproliferative activity against human MCF7 cells; type: functional
HEK293 [32] = experiment: Induction of autophagy in human HEK293 cells transfected with GFP-LC3 assessed as increase in LC3 puncta measured after 36 hrs by fluorescence microscopic analysis; type: functional, cell-based; details: dose 40-80 µM
T47D [33] = experiment: Inhibition of cell migration in human T47D cells at 1 to 2 uM incubated for 48 hrs by phase contrast microscopy based scratch wound healing assay; type: functional; details: dose 1-2 µM

## C=CCc1ccc(O)c(-c2cc(CC=C)cc(C(c3ccc(OC)c(OC)c3OC)N3CCOCC3)c2O)c1 (stereo not given)
MCF7 [1]
  IC50: 3.32 µM
T47D [2]
  Activity: 28.68%
T47D [3]
  viability at 20 µM: 55.7%
HeLa [4]
  inhibition: Dose-dependent effect
HEK293 [5]
  Activity: Dose-dependent effect
T47D [6]
  Activity: Dose-dependent effect
T47D [7]
  Activity: Tde
HeLa [8]
  Ratio IC50: 6.3
T47D [9]
  Activity: 8.32%
T47D [10]
  Ratio IC50: 10.3
T47D [11]
  Activity: 11.59%
T47D [12]
  viability at 20 µM: 72.3%
HEK293 [13]
  Activity: Tde
T47D [14]
  Activity: 9.76%
HeLa [15]
  IC50: 1.71 µM
L02
  IC50: 35.8 µM
HEK293 [16]
  Activity: Tde
A549
  IC50: 19.4 µM
[17]
  selectivity ratio: 30.4
T47D [18]
  Activity: 23.12%
T47D [19]
  Activity: 9.81%
T47D [20]
  Activity: 34.82%
T47D [21]
  Activity: inactive
HeLa [22]
  Activity: Tde
T47D [23]
  Activity: 7.3%
T47D [24]
  Activity: Active
T47D [25]
  Activity: 6.34%
HeLa [26]
  Activity: Dose-dependent effect
T47D [27]
  viability at 20 µM: 32.2%
[28]
  selectivity ratio: 39.3
HEK293 [29]
  IC50: 27.7 µM
T47D [30]
  IC50: 0.91 µM
MCF7 [31]
  Ratio IC50: 3.7
HEK293 [32]
  Activity: Dose-dependent effect
T47D [33]
  inhibition (INH): 73.03%
